This is an account of results in US8906865B2, “Treatment of inflammation and/or endotoxic shock” (ISIS Innovation Limited, priority 2007, dated 2014).

Non-standard residues stand in square brackets, D forms with d. Residues, ends and D or L forms follow the SMILES beside them. *: point of attachment. Sta = CC(C)C[C@H](N)[C@@H](O)CC(=O)O; Isovaleryl = CC(C)CC(=O)*; Cbz = O=C(OCc1ccccc1)*; CH2F = FC*

For test [1] the following is noted: quoted in the discussion; cited from earlier work.
Test [2] deals with Murine peritoneal macrophages (PMΦ). The experiment in a line: Macrophage activation assay: LPS/IFNγ-induced inflammatory cytokine expression (ELISA, Luminex). The following applies: for Effect of protease inhibitor on chemerin-mediated suppression of MΦ activation (FIG. 1F): chemerin 1 pM + protease inhibitor 1 h, then LPS/IFNγ 15 h; for Percentage inhibition of LPS/IFNγ-induced inflammatory cytokine expression: RANTES / Percentage inhibition of LPS/IFNγ-induced inflammatory cytokine expression: TNFα: PMΦ, pre-treatment 1 h (0.1 pM-100 nM), then LPS 100 ng/ml + IFNγ 20 ng/ml 15 h, optimal dose (1 pM Chemerin and C15, 100 pM C13 and C19); for Optimal dose (maximal response) for suppression of LPS/IFNγ-induced cytokine expression: macrophage activation assay; for Anti-inflammatory activity in the MΦ activation assay: peptides 0.1 pM-100 nM. Format: cell-based, mouse. On the procedure: Murine peritoneal macrophages (PMθ, also referred to as PMΦ herein) were cultured under various conditions: Untreated; LPS (100 ng/ml) and IFNγ (20 ng/ml) for 15 h; Chemerin (1 pM) pre-treatment for 1 h then LPS/IFNγ for 15 h; Leupeptin (protease inhibitor; 15 mg/ml) and Chemerin (1 pM) for 1 h then LPS/IFNγ for 15 h; or Dexamethasone (positive control; 1 μM pre-treatment for 1 h then LPS/IFNγ for 15 h.
Murine PMθ were cultured under various conditions: Untreated, LPS (100 ng/ml) and IFNγ (20 ng/ml) for 15 h; Chemerin peptides (at a concentration of 1 pM-100 nM) pre-treatment for 1 h then LPS/IFNγ for 15 h. […] Experiments were performed with triplicate determinations for each treatment. Representative data from five independent experiments employing cells from different groups of C57B16/J mice are shown. p<0.01 **; p<0.001 *** relative to LPS/IFNγ treated samples.
With reference to Table 1, anti-inflammatory activity of chemerin-derived peptides—Murine PMΦ were cultured as described for FIG. 1B and were challenged with LPS (100 ng/ml) and IFNγ (20 ng/ml) for 15 h with/without pre-treatment with peptides (0.1 pM-100 nM) for 1 h. […] Peptide sequences are: C11 (P144-A154; […]), C13 (P144-S156; […]), C15 (A140-A154; […]), C19 (A138-S156; […]; Seq ID: No. 37), N19 (E23-K41; […] Seq ID No: 44) and M20 (K86-K105; […] Seq ID No. 45). Control peptides: scrambled C15 (C15-S; […]) and mutant C15 (C15-M; […]; F148A & F153A). Data represent mean percentage inhibition of cytokine production by classically activated macrophages from 4-8 independent experiments as determined by ELISA and Luminex assay.
1 ml 2% BioGEL polyacrylamide beads in sterile Phosphate-Buffered Saline (PBS) were injected intraperitoneally (ip) into C57B1/6J mice. Four days after ip BioGEL administration, mice were sacrificed by the CO, method according to Home Office guidelines. Peritoneal cavities were flushed with 10 ml sterile PBS-2 mM EDTA to harvest BioGEL-evoked/elicited cellular infiltrate. Suspensions of harvested cells were centrifuged at 1000×g for 5 mins at 4° C. The supernatants were discarded and cell pellets were resuspended in 6 mls OptiMEM medium supplemented with 2 mM Glutamine, 50 units/ml Penicillin and 50 μg/ml Streptomycin. Macrophages were quantified following incubation on ice for 5-10 mins with Turk's solution using a haemocytometer. Cell suspensions (2 mls; 1.5×10^6/well) were plated in six-well tissue culture plates (35 mm diameter: Costar, UK) and allowed to adhere for 2 hours at 37° C. in a humidified atmosphere containing 5% CO2, to isolate macrophage populations by adherence. This gave greater than 95% purity assessed by cytospinning, staining of cells with Methylene Blue and Eosin and counting based on cellular morphology. Nonadherent cells (mainly granulocytes) were discarded and wells were washed three times with sterile PBS to remove loosely adherent or dead cells. […] To determine PTX sensitivity and dependency upon proteolysis, cells were pre-incubated with PTX (200 ng/ml) or Leupeptin (15 μg/ml). Additional cells were treated with peptides alone. Supernatants were harvested and stored at −20° C. until use in Enzyme-Linked Immunosorbance Assays (ELISAs) and Luminex assays. Cells were lysed to allow extraction of total RNA by the TRIZOL method. Lysates were stored at −80° C. until RNA extraction following manufacturer's guidelines (Qiagen, RNeasy Mini Prep Kit).
RANTES, Tumour necrosis factor (TNFα) and CCL9 concentrations in cell supernatants were assessed by ELISA. IL-12 p40, IL-10, IL-1β, TNFα, MCP-1 (Monocyte chemoattractant protein-1) and IL-6 levels were determined by Luminex multiplex bead assay (Bio-rad 6 plex assay). Lower limits of detection for ELISAs were 0.1-0.5 ng/ml and 10-50 pg/ml for Luminex assays.
A general note: In an ELISA, binding on a coated surface is turned into a signal by an enzyme label.

For test [3], the system named is PMΦ (peritoneal macrophages). The experiment in a line: Macrophage chemotaxis assay (modified Boyden chamber). Format: cell-based, mouse. The conditions noted are these: for Macrophage chemotactic activity: migration over 4 h, compared with C140 and RANTES 25 ng/ml; for Concentration of maximal macrophage migration: tested 1 pM-100 nM. The method, then: PMθ (0.5×10^6) were allowed to migrate towards chemoattractant (Chemerin140 or Chemerin peptides) in the bottom well of a modified Boyden chamber over 4 h. Filters were fixed in 4% formalin, then migrated cell nuclei were stained with DAPI and visualised. Serum free media (SFM) were used as a negative control and the macrophage chemoattractant RANTES (25 ng/ml; 3 nM) as a positive control. The graphs indicate mean Migration Index (Chemoattractant % threshold area/SFM % threshold area)±SEM for each treatment group (n=5-6). p<0.001 ***; p<0.01 **; p<0.05 * relative to SFM treated wells.
PMθ were recruited following a 4 day peritoneal stimulation with BioGEL beads. Peritoneal cavities of male C57B16/J mice were lavaged with 5 ml PBS-2 mM EDTA. Cells were centrifuged and resuspended in RPMI supplemented with 0.5% BSA and 25 mM Hepes. Cells (0.5×10^6) were allowed to migrate towards chemoattractant (C140, C17m or C17m+C140) in the bottom well over 4 h. Filters were fixed in 4% formalin, then nuclei were stained with DAPI and visualised. Serum free media was used as a negative control (−/−). Cells were preincubated with Pertussis toxin (PTX) for 30 mins before the chemotaxis assay. The bar graphs in FIG. 11 show the mean Migration Index±SEM for each treatment group. Each bar represents at least triplicate wells and at least 3 pictures taken per treatment. p<0.001 ***; p<0.01 **; p<0.05 * relative to SFM treated wells unless otherwise stated.
Cell migration was assessed by use of transwell membranes (ChemoTX, 6-mm diameter, 8-μm pore size). Briefly, BioGEL-elicited cells were harvested and placed on transwell membranes (250 000 cells/membrane in RPMI supplemented with 25 mM Hepes and 0.1% bovine serum albumin. Cells were allowed to migrate toward Chemerin peptides (1 pM-100 nM) for 4 h. Signal transduction via G protein-coupled receptors was blocked by preincubating cells with pertussis toxin (PTX, 200 ng/ml, Sigma-Aldrich) for 30 mins before placing cells on transwell membranes. Migrated cells on the underside of membranes were fixed (3% formaldehyde) and stained with DAPI. Migration was quantified as total pixel count of DAPI stained nuclei under the confocal microscope (2 photos/membrane and a minimum of 3 replicate wells per treatment). Images were analyzed using Metamorph Offline software to determine percentage threshold areas (TA) occupied by migrated cells. Migration indices were obtained by dividing treatment TA by serum-free media TA. For secondary chemotaxis assays ChemoTx 3-mm diameter, 8-μm pore membranes were used with 50 000 cells/membrane.

[4] abbreviates: C13m 100 pM, C15m 1 pM, C17m 1 pM, pre-treatment 1 h then LPS/IFNγ 15 h.

`CCCCC/C=C\C[C@@H](O)/C=C/C=C/C=C\[C@@H](O)CCCC(=O)O` [LTB4, leukotriene B4]: the “Potency of comparison mediators” value in test [1] is recorded as 10^−11 M.
Turning to `CC(=O)N[C@@H](CC(C)C)C(=O)N[C@@H](CC(C)C)C(=O)N[C@H](C=O)CCCNC(=N)N` [Leupeptin, reference compound], in test [2], the “Effect of protease inhibitor on chemerin-mediated suppression of MΦ activation (FIG. 1F)” value is “abolished its anti-inflammatory effects”.
Same read-out and setting: the result for `Cl.NCCc1ccc(S(=O)(=O)F)cc1` [Pefabloc, reference compound] reads “exerted no effect”; that for `CC(C)CC(=O)N[C@H](C(=O)N[C@H](C(=O)N[C@@H](CC(C)C)[C@@H](O)CC(=O)N[C@@H](C)C(=O)N[C@@H](CC(C)C)[C@@H](O)CC(=O)O)C(C)C)C(C)C` [Pepstatin A, reference compound] (Isovaleryl-VV[Sta]A[Sta]-OH), “exerted no effect”; that for `O=C(NC(Cc1ccccc1)C(=O)NC(Cc1ccccc1)C(=O)CF)OCc1ccccc1` (stereo not drawn) [Z-FF-FMK, reference compound] (Cbz-Phe-Phe-CH2F; configuration not given here), “independent of cathepsin L”.
The same measure, in the same setting: the result for `CC(C)C[C@H](NC(=O)[C@H](Cc1ccccc1)NC(=O)OCc1ccccc1)C(=O)C=O` [Z-FL-COCHO, reference compound] reads “dependent upon calpains and cathepsin S”; that for `CCCC[C@@H](C=O)NC(=O)[C@H](CC(C)C)NC(=O)OCc1ccccc1` [calpeptin, reference compound], “dependent upon calpains”.
As to `CSCC[C@H](NC=O)C(=O)N[C@@H](CC(C)C)C(=O)N[C@@H](Cc1ccccc1)C(=O)O` [fMLP, formyl-Methionyl-Leucyl-Phenylalanine], the “Potency of comparison mediators” value in test [1] is recorded as 10^−11 M.
“AQAGEDPHGYFLPGQFAFS (listed as Mus sp.) [C19]”: the Macrophage chemotactic activity result in test [3] is listed as “no chemotactic activity”. In test [2], the “Percentage inhibition of LPS/IFNγ-induced inflammatory cytokine expression: RANTES” value is listed as 41%, the “Percentage inhibition of LPS/IFNγ-induced inflammatory cytokine expression: TNFα” value is 21% and the “Optimal dose (maximal response) for suppression of LPS/IFNγ-induced cytokine expression” value worked out at 100 pM.
Turning to “ELSETQRRSLQVALEEFHK (listed as Mus sp.) [N19, N-terminal peptide E23-K41]”, in test [2], the “Percentage inhibition of LPS/IFNγ-induced inflammatory cytokine expression: RANTES” value was found to be 0%, the “Percentage inhibition of LPS/IFNγ-induced inflammatory cytokine expression: TNFα” value is listed as 0% and the “Anti-inflammatory activity in the MΦ activation assay” value (shortened to “Anti-inflammatory activity”) is “devoid of anti-inflammatory activity”.
With “FSRALRTK (listed as Mus sp.) [C8, 8 aa peptide removed during prochemerin cleavage, reference compound]”, in test [3], the Macrophage chemotactic activity entry is “incapable of inducing MΦ migration”. Moreover, in test [2], the “Percentage inhibition of LPS/IFNγ-induced inflammatory cytokine expression: RANTES” value is reported as 0%, the “Percentage inhibition of LPS/IFNγ-induced inflammatory cytokine expression: TNFα” value came to 0% and the “Anti-inflammatory activity” value was “no detectable anti-inflammatory activity”.
As to “KPECTIKPNGRRRKCLACIK (listed as Mus sp.) [M20, midstream peptide K86-K105]”, in test [2], the “Percentage inhibition of LPS/IFNγ-induced inflammatory cytokine expression: RANTES” value is 0%, the “Percentage inhibition of LPS/IFNγ-induced inflammatory cytokine expression: TNFα” value was 0% and the “Anti-inflammatory activity” value was “devoid of anti-inflammatory activity”.
On to PHGYFLPGQFA (listed as Mus sp.) [C11], for which, in test [3], the Macrophage chemotactic activity result is “little chemotactic activity” and the “Concentration of maximal macrophage migration” value is recorded as 10 nM. In addition, in test [2], the “Percentage inhibition of LPS/IFNγ-induced inflammatory cytokine expression: RANTES” value came to 0%, the “Percentage inhibition of LPS/IFNγ-induced inflammatory cytokine expression: TNFα” value was 0% and the “Anti-inflammatory activity” value was “devoid of anti-inflammatory activity”.
Take PHGYFLPGQFAFS (listed as Mus sp.) [C13]: in test [3], the Macrophage chemotactic activity result is on record as “little chemotactic activity” and the “Concentration of maximal macrophage migration” value is reported as 10 nM. For the same compound, in test [2] (setting [4]), the “Suppression of LPS/IFNγ-induced RANTES secretion (FIG. 2B)” value was 32% and the “Suppression of LPS/IFNγ-induced TNFα expression (FIG. 2B)” value turned out to be 10%. Moreover, in test [2], the “Percentage inhibition of LPS/IFNγ-induced inflammatory cytokine expression: RANTES” value came to 32%, the “Percentage inhibition of LPS/IFNγ-induced inflammatory cytokine expression: TNFα” value is recorded as 10% and the “Optimal dose (maximal response) for suppression of LPS/IFNγ-induced cytokine expression” value was found to be 100 pM.
In the case of “RALRTK (listed as Mus sp.) [C6, 6 aa peptide removed during prochemerin cleavage, reference compound]”, the Macrophage chemotactic activity entry in test [3] is listed as “incapable of inducing MΦ migration”. In test [2], the “Percentage inhibition of LPS/IFNγ-induced inflammatory cytokine expression: RANTES” value was 0%, the “Percentage inhibition of LPS/IFNγ-induced inflammatory cytokine expression: TNFα” value was determined as 0% and the “Anti-inflammatory activity” value is on record as “no detectable anti-inflammatory activity”.
Regarding TNFα, the “Potency of comparison mediators” value in test [1] is on record as 10^−11 M.
